Reference: patent US20210196720A1 (UROVANT SCIENCES GMBH, priority 2018, published 2021)
Each block holds one compound with its values, some of them ahead of it.

Experiments:
[1] = Phase 2b OAB study, adverse events
Source text: A placebo group was included in the main study, and a group that received tolterodine monotherapy was included in the main study and in the extension.

[2] = Drug interaction: effect of vibegron on conmed PK; details: human, in vivo, 4 mg
[3] = Phase 2b OAB study, cardiovascular safety (HR, SBP, DBP, orthostatic AEs); format: in vivo, human; details: 4 mg
Source text: None led to discontinuation. The overall incidence of orthostatic symptoms was low.
Small differences in the percent of subjects exceeding categorical heart rate and blood pressure thresholds for vibegron were similar to those in the tolterodine arm.

[4] = clinical; details: human, in vivo
[5] = Mass balance study with [14C]vibegron, healthy subjects; details: human plasma, 2 and 4 hr
[6] = cited from earlier work

SMILES: Cc1ccc(O)c([C@H](CCN(C(C)C)C(C)C)c2ccccc2)c1 [Tolterodine ER, reference compound]
Discontinuation due to drug-related AE, subjects ([1]; first 12 weeks, dose group by column): 0 n
frequency of injuries ([1]; human, in vivo): 2.1%
Cmax [2]: 2.28 ng/mL
DBP change from baseline, mean (95% CI) max, week 1 to 8 [3]: 5.19 (4.26, 6.13) mm Hg
DBP change from baseline, mean (95% CI), week 1 [3]: −0.12 (−1.10, 0.86) mm Hg
HR change from baseline, mean (95% CI) maximum, week 1 to 8 [3]: 5.66 (4.69, 6.63) bpm
HR change from baseline, mean (95% CI), week 1 [3]: 0.68 (−0.31, 1.67) bpm
SBP change from baseline, mean (95% CI) maximum, week 1 to 8 [3]: 7.29 (6.01, 8.57) mm Hg
SBP change from baseline, mean (95% CI), week 1 [3]: 0.04 (−1.36, 1.43) mm Hg

SMILES: C#C[C@]1(O)CC[C@H]2[C@@H]3CCc4cc(O)ccc4[C@H]3CC[C@@]21C [EE, ethinyl estradiol]
AUC ([4]; 0.03 mg): 0.81 ng·h/mL
Cmax ([4]; 0.03 mg): 0.0719 ng/mL

SMILES: C[C@H]1O[C@@H](O[C@H]2[C@@H](O)C[C@H](O[C@H]3[C@@H](O)C[C@H](O[C@H]4CC[C@@]5(C)[C@H](CC[C@@H]6[C@@H]5C[C@@H](O)[C@]5(C)[C@@H](C7=CC(=O)OC7)CC[C@]65O)C4)O[C@@H]3C)O[C@@H]2C)C[C@H](O)[C@@H]1O [Digoxin]
AUC ([4]; 0.25 mg): 16.6 ng·h/mL

SMILES: O=C(O)c1cccc(-c2cccc(NCCNC[C@H](O)c3cccc(Cl)c3)c2)c1 [solabegron]
number of pain- and discomfort-free days vs placebo ([6]; Phase IIa, IBS, females): statistically significant increase
clinical benefit ([6]; Phase IIa, IBS, male subjects): no clinical benefit
bowel function and plasma somatostatin concentration ([6]; healthy volunteers): no effect
gastrointestinal or colonic transit ([6]; healthy volunteers): did not significantly alter

More lines, now with the values ahead:

AUC ([4]; 0.15 mg): 31 ng·h/mL
Cmax ([4]; 0.15 mg): 2.07 ng/mL
SMILES: C#C[C@]1(O)CC[C@H]2[C@@H]3CCC4=CC(=O)CC[C@@H]4[C@H]3CC[C@@]21CC [LNG, levonorgestrel]

share of total circulating drug-related material [5]: 12-14%
SMILES: O=C(O)C1OC(OC(c2ccccc2)C2CCC(Cc3ccc(NC(=O)C4CCc5nccc(=O)n54)cc3)N2)C(O)C(O)C1O (stereo not shown) [M7]
